# Test results: US6153405A, “Lantibiotic mutants and chimeras of enhanced stability and activity, leader sequences therefor, genes encoding the same, and methods of producing and using the same” (The University of Maryland, priority 1998, dated 2000)
# Read-outs that look alike come from different tables or passages of the source. *1 amine or outer side, *2 acyl side, *3 side chain or, on linkers, in order; H or OH if unused. Where no end group is shown, it is not given here. Suc = O=C(CCC(=O)[*:2])[*:1]
# Assays:
# [1] = tested on: B. cereus T spores; assay: liquid culture assay of spore outgrowth; format: cell-based, Bacillus cereus; settings: for inhibition of spore outgrowth (inhibitory concentration): B. cereus T spores, 90 min incubation
# Protocol: In the liquid culture assay, various concentrations of peptide were added to a suspension of B. cereus T spores in modified medium A and incubated in a rotating drum shaker at 30° C. for 90 min. The inhibitory effects were evaluated using phase contrast microscopy and a Klett-Summerson calorimeter. After incubation, cells were viewed by phase-contrast microscopy to determine their stage of outgrowth. Those cells in early stages of outgrowth (phase-dark and swollen, but only slightly elongated) were considered inhibited. Those cells that were fully elongated and/or divided were considered to be not inhibited. The inhibitory concentration is the concentration of peptide which arrests a majority of the population of spores at the stage of early outgrowth after the 90-min incubation period. Further, spore germination and outgrowth are accompanied by known changes in the optical density at 650 nm. Thus, the stage of outgrowth can be monitored and the inhibitory concentration can be confirmed using a Klett-Summerson calorimeter. Definitive determinations of the inhibitory concentration of peptide advantageously employ both phase-contrast microscopy and measurement of the optical density at 650 nm.
# [2] = tested on: B. cereus vegetative cells; assay: liquid assay of vegetative cells (lysis by turbidity); format: cell-based, Bacillus cereus; settings: for inhibition of vegetative cells (inhibitory concentration): amount of peptide required to reduce turbidity by 50%
# Protocol: The activity of the chimeric Nis1-11 -Sub12-32 peptide towards inhibiting B. cereus vegetative cells was also determined. Heat-shocked B. cereus T spores (150 micrograms) were added to 1% tryptone (Difco)-0.1 M Tris-phosphate buffer (2 ml) at pH 6.8. The mixture was incubated for 2 hours at 37° C. in a rotating drum shaker, whereupon all of the spores were in the vegetative state. The chimeric peptide was then added, and incubation was continued for one additional hour. Cell lysis was monitored by turbity (measured in Klett units), and the integrity of the cell was determined by phase-contrast microscopy. Relative inhibitory effectiveness was measured as the amount of inhibitory peptide required to reduce the turbity by 50%.
# [3] = tested on: Bacillus cereus spores and/or vegetative cells; settings: cited from earlier work
# [4] = tested on: B. cereus T spores; assay: inhibition zone (halo) assay; format: cell-based, Bacillus cereus; settings: HPLC fractions spotted on agar, sprayed with B. cereus T spores
# Protocol: Biological activity was measured using an inhibition zone (halo) assay (ref. 21 and U.S. application Ser. No. 07/981,525 now U.S. Pat. No. 5,516,682) and a liquid culture assay (26). HPLC fractions were tested for activity by spotting 15 μL onto an agar plate (modified Medium A), incubating at 37° C. for 15 min., spraying with B. cereus T spores and incubating at 37° C. for 16 hr. Positive inhibition is defined as and was determined by a clear zone containing spores that were inhibited during outgrowth surrounded by an opaque lawn of cells derived from the spores that had become vegetative.
# [5] = stability of dehydro residues in aqueous solution by 1H NMR; format: physicochemical; settings: D2O, pH 6.0, dark, room temperature
# Protocol: Samples for ^1 H NMR spectral analysis were dissolved in deuterated water (99.96 atom % D, Aldrich Chemical Co.), lyophilized (repeated twice) to exchange protons and dissolved in D2 O to a final concentration of 2-3 mg/mL. ^1 H NMR spectra were obtained using a Bruker AMX-500 spectrometer interfaced to an Aspect 3000 computer. Spectra were obtained at a constant temperature of 295 K, using selective solvent suppression. Data were processed using UXNMR software. Mass spectral analysis was performed by PeptidoGenic Research & Co. (Livermore, Calif.) on a Sciex API I Electrospray Mass Spectrometer which has an analysis range of over 200,000 Da with +/-0.01% accuracy, on 5 μL samples at a concentration of about 5 pmol/μL. The reported masses are those calculated as the most probable values based on the different m/z forms.
# A 3 mg amount of the Nis1-11 -Sub12-32 chimera (consisting of a mixture of the Early Peak and Late Peak as defined in FIGS. 4 and 5) was dissolved in D2 O at a pH of 6.0, placed in an NMR tube (which was then closed), and incubated in aqueous solution in the dark at room temperature for 2.5 months.
# [6] = inferred through nisin from previous measurements (21, 26, 31)
substance,measurement,setting,value
nisin [reference compound],inhibition of spore outgrowth (inhibitory concentration),[1],about 0.2 μg/ml
same,inhibition of vegetative cells (inhibitory concentration),[2],about 2 μg/ml
"NL --Nis1-34: complete nisin prepeptide: nisin leader region and nisin structural region (MSTKDFNLDLVSVSKKDSGASPRITSISLCTPGCKTGALMGCNMKTATCHCSIHVSK; full-length; UniProt P13068 1-57, looked up)",Secreted peptide is active,"[3]; prepeptide expressed in L. lactis 11454, ref. c (17)",yes
"succinylated subtilin: subtilin succinylated at its N-terminus, accumulates in late stationary phase of B. subtilis 6633 (Suc-WKSESLCTPGCVTGALQTCFLQTLTCNCKISK; cysteine pairing not given here; also: lantibiotic (post-translational modifications not placed); UniProt P10946 25-56, looked up)",activity compared with normal unsuccinylated subtilin,[3]; succinylated at N-terminus,significantly less active
"SL --S1-32: prepeptide: subtilin leader sequence and subtilin structural region (MSKFDDFDLDVVKVSKQDSKITPQWKSESLCTPGCVTGALQTCFLQTLTCNCKISK; full-length; UniProt P10946 1-56, looked up)",Secreted peptide is active,"[3]; prepeptide expressed in B. subtilis 168, ref. b (21)",yes
same,Secreted peptide is active,[3]; prepeptide expressed in B. subtilis 6633,yes
"Nis1-11 -Sub12-32: chimeric lantibiotic: nisin residues 1-11 and subtilin residues 12-32 (SEQ ID NO:5), processed by B. subtilis 168",antimicrobial activity in halo assay,[4],possessed antimicrobial activity
same,antimicrobial activity in halo assay,[4]; listed as Early Peak,antimicrobial activity is associated mainly with the Early Peak
same,activity against spore outgrowth,[1],active
same,inhibition of spore outgrowth (inhibitory concentration),[1],about 0.2 μg/ml
same,activity relative to E4I-subtilin (fold more active),[1]; [6],about 2 fold
same,activity relative to natural subtilin (times more active),[1]; [6],6-8 times
same,activity against vegetative growth,[2],active
same,inhibition of vegetative cells (inhibitory concentration),[2],about 2 μg/ml
same,change in the NMR resonances of the dehydro residues,"[5]; 72-day incubation, mixture of Early Peak and Late Peak",no significant change
same,half-life of the Dha5 residue,"[5]; NMR at 0, 34 and 72 days",so long that it cannot be estimated from the 72-day time-point
